Source: US8362000B2, “Azetidinyl diamides as monoacylglycerol lipase inhibitors” (Janssen Pharmaceutica NV, priority 2009, dated 2013)
Residue numbers refer to the chain shown, from its start. Read-outs that look alike come from different tables or passages of the source.

Legend:
mutant MGL = target: T1, mutant MGL (Homo sapiens, UniProt Q99685, L169S/L176S); experiment: MGL ThermoFluor assay - mutant; type: binding
T1 sequence (Q99685 1-303 L169S/L176S): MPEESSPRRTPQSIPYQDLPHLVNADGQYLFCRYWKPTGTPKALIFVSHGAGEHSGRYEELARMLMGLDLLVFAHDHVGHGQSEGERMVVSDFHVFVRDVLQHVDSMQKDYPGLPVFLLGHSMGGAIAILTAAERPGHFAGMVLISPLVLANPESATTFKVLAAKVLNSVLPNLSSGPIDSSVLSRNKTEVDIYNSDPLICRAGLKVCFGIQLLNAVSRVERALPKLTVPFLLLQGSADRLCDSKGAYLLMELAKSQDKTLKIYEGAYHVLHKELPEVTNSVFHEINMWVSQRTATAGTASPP
Description: The ThermoFluor (TF) assay is a 384-well plate-based binding assay that measures thermal stability of proteins^1,2. […] TF dye used in all experiments was 1,8-ANS (Invitrogen: A-47). Final TF assay conditions used for MGL studies were 0.07 mg/ml of mutant MGL, 100 μM ANS, 200 mM NaCl, 0.001% Tween-20 in 50 mM PIPES (pH=7.0).
Screening compound plates contained 100% DMSO compound solutions at a single concentration. […] Columns 12 and 24 were used as DMSO reference and contained no compound. […] Following compound dispension, protein and dye solutions were added to achieve the final assay volume of 3 μL.
Bar-coded assay plates were robotically loaded onto a thermostatically controlled PCR-type thermal block and then heated from 40 to 90° C. degrees at a ramp-rate of 1° C./min for all experiments. Fluorescence was measured by continuous illumination with UV light (Hamamatsu LC6), supplied via fiber optics and filtered through a band-pass filter (380-400 nm; >60D cutoff). Fluorescence emission of the entire 384-well plate was detected by measuring light intensity using a CCD camera (Sensys, Roper Scientific) filtered to detect 500±25 nm, resulting in simultaneous and independent readings of all 384 wells. A single image with 20-sec exposure time was collected at each temperature, and the sum of the pixel intensity in a given area of the assay plate was recorded vs temperature and fit to standard equations to yield the Tm^1. • 1.
For some experiments, quantitative NMR spectroscopy (qNMR) was used to measure concentration of the initial 100% DMSO compound solutions and, using the same fitting method, qKd values were determined

[1] = target: T2, purified wild type MGL (wt-MGLL 6H-11-313) (Homo sapiens, UniProt Q99685)
T2 sequence (Q99685 1-303): T1 sequence (Q99685 1-303 L169S/L176S) with S169L, S176L

[2] = ThermoFluor concentration-response, read-out: MGL mutant ThermoFluor Kd
[3] = ThermoFluor, compound concentration measured by qNMR, read-out: MGL mutant ThermoFluor qKd (using qNMR conc.)
[4] = ThermoFluor thermal stability binding assay, read-out: MGL mutant ThermoFluor Kd
[5] = ThermoFluor, compound concentration measured by qNMR, read-out: MGL mutant ThermoFluor qKd (μM) (using qNMR conc.)
[6] = compound concentration measured by qNMR, read-out: MGL mutant ThermoFluor qKd (using qNMR conc.)

O=C(c1ccc(Cc2cccc(C(F)(F)F)c2)cc1)N1CC(N2CCN(C(=O)c3nccs3)CC2)C1 [Cpd 995]
Kd (mutant MGL; [2]): 0.002 µM
IC50 [1]: < 5 nM

O=C(c1cscn1)N1CC(N2CCN(C(=O)c3cc4cc(C(F)(F)F)ccc4[nH]3)CC2)C1 [Cpd 772]
Kd (mutant MGL; [2]): 0.185 µM
IC50 [1]: 799 nM

O=C(c1ccccc1)N1CCN(C2CN(C(=O)c3ccc(Oc4cccc(Cl)c4)nc3)C2)CC1 [Cpd 519, 1-(1-{[6-(3-Chlorophenoxy)pyridin-3-yl]carbonyl}azetidin-3-yl)-4-(phenylcarbonyl)piperazine]
Kd (mutant MGL; [2]): 0.962 µM
IC50 [1]: 1620 nM

O=C(c1ccc2c(-c3ccccc3)c(-c3ccccc3)[nH]c2c1)N1CC(N2CCN(C(=O)c3nccs3)CC2)C1 [Cpd 1119]
Kd (mutant MGL; [3]): 0.02 µM
IC50 [1]: 17 nM

O=C(c1nccs1)N1CCN(C2CN(C(=O)c3ccccc3NCc3ccccc3)C2)CC1 [Cpd 775]
Kd (mutant MGL; [4]): 0.333 µM
IC50 [1]: 862 nM

O=C(c1ccc(-c2cccc(C(F)(F)F)c2)cc1)N1CC(N2CCN(C(=O)c3ccc(Br)o3)CC2)C1 [Cpd 1335]
Kd (mutant MGL; [5]): 0.011 µM
IC50 [1]: < 5 nM

O=C(c1cscn1)N1CCN(C2CN(C(=O)c3cc(-c4ccccc4)ccc3F)C2)CC1 [Cpd 1280]
Kd (mutant MGL; [2]): 6.42 µM
IC50 [1]: 1980 nM

O=C(c1ccccc1)N1CCN(C2CN(C(=O)c3ccc(Oc4ccccn4)c(Cl)c3)C2)CC1 [Cpd 525]
Kd (mutant MGL; [2]): 2.5 µM
IC50 [1]: 6990 nM

O=C(c1cscn1)N1CCN(C2CN(C(=O)c3cccc4nc(-c5ccccc5)oc34)C2)CC1 [Cpd 1237]
Kd (mutant MGL; [4]): 0.064 µM
IC50 [1]: 393 nM

CC1(C)c2ccccc2-c2ccc(C(=O)N3CC(N4CCN(C(=O)c5nccs5)CC4)C3)cc21 [Cpd 952]
Kd (mutant MGL; [3]): 0.019 µM
IC50 [1]: 12 nM

O=C(c1ccc[nH]1)N1CCN(C2CN(C(=O)c3[nH]c4nc(C(F)(F)F)ccc4c3Br)C2)CC1 [Cpd 739]
Kd (mutant MGL; [3]): 0.265 µM
IC50 [1]: 290 nM

COc1ccc2cc(C(=O)N3CC(N4CCN(C(=O)c5nccs5)CC4)C3)c(C)nc2c1 [Cpd 845]
Kd (mutant MGL; [3]): 1.62 µM
IC50 [1]: 6420 nM

O=C(c1ccc2c(-c3cccc(F)c3)c[nH]c2c1)N1CC(N2CCN(C(=O)c3nccs3)CC2)C1 [Cpd 1319]
Kd (mutant MGL; [6]): 0.001 µM
IC50 [1]: < 5 nM

Cc1cc(-n2ccc3cc(C(=O)N4CC(N5CCN(C(=O)c6nccs6)CC5)C4)ccc32)ccc1C#N [Cpd 1375, 2-Methyl-4-[5-({3-[4-(1,3-thiazol-2-ylcarbonyl)piperazin-1-yl]azetidin-1-yl}carbonyl)-1H-indol-1-yl]benzonitrile]
Kd (mutant MGL; [5]): 0.003 µM
IC50 [1]: < 5 nM

O=C(c1ccccc1)N1CCN(C2CN(C(=O)c3ccc(Oc4cccnc4)cc3)C2)CC1 [Cpd 527]
Kd (mutant MGL; [2]): 10 µM
IC50 [1]: 8570 nM

O=C(c1nccs1)N1CCN(C2CN(C(=O)c3ccc4c(ccn4-c4ccc(F)cc4)c3F)C2)CC1 [Cpd 1348, 4-Fluoro-1-(4-fluorophenyl)-5-({3-[4-(1,3-thiazol-2-ylcarbonyl)piperazin-1-yl]azetidin-1-yl}carbonyl)-1H-indole]
Kd (mutant MGL; [6]): 0.002 µM
IC50 [1]: < 5 nM

O=C(c1ccccc1)N1CCN(C2CN(C(=O)c3cccc4[nH]c(-c5ccc(F)cc5)nc34)C2)CC1 [Cpd 602]
Kd (mutant MGL; [4]): 0.5 µM
IC50 [1]: 1720 nM

O=C(c1cscn1)N1CCN(C2CN(C(=O)c3sc4cc(C(F)(F)F)ccc4c3Cl)C2)C(C(F)(F)F)C1 (stereo not shown) [Cpd 801]
Kd (mutant MGL; [4]): 52.5 µM
IC50 [1]: 1710 nM

O=C(c1ccc2c(N3CCSCC3)ncnc2c1)N1CC(N2CCN(C(=O)c3nccs3)CC2)C1 [Cpd 951, 7-({3-[4-(1,3-Thiazol-2-ylcarbonyl)piperazin-1-yl]azetidin-1-yl}carbonyl)-4-thiomorpholin-4-ylquinazoline]
Kd (mutant MGL; [6]): 0.117 µM
IC50 [1]: 540 nM

O=C(c1ccc(Oc2cccc(F)n2)cc1)N1CC(N2CCN(C(=O)c3cscn3)CC2)C1 [Cpd 784]
Kd (mutant MGL; [2]): 2.15 µM
IC50 [1]: 1130 nM

O=C(c1ccc2c(c1)[nH]c(=O)n2-c1ccccc1)N1CC(N2CCN(C(=O)c3cscn3)CC2)C1 [Cpd 939]
Kd (mutant MGL; [2]): 0.302 µM
IC50 [1]: 2360 nM

Cc1nc(-c2ccccc2F)sc1C(=O)N1CC(N2CCN(C(=O)c3nccs3)CC2)C1 [Cpd 1202]
Kd (mutant MGL; [2]): 0.065 µM
IC50 [1]: 152 nM

CN(c1ccccc1)S(=O)(=O)c1ccc(C(=O)N2CC(N3CCN(C(=O)c4nccs4)CC3)C2)cc1 [Cpd 946]
Kd (mutant MGL; [3]): 1.69 µM
IC50 [1]: 1000 nM

O=C(c1cscn1)N1CCN(C2CN(C(=O)c3cc4nc(C(F)(F)F)ccc4[nH]3)C2)CC1 [Cpd 1450]
Kd (mutant MGL; [5]): 12.6 µM
IC50 [1]: > 16700 nM

COc1cncc(-c2ccc3cc(C(=O)N4CC(N5CCN(C(=O)c6nccs6)CC5)C4)[nH]c3c2)c1 [Cpd 1196]
Kd (mutant MGL; [5]): 0.37 µM
IC50 [1]: 123 nM

O=C(c1ccc2nc(C(F)(F)F)cc(Cl)c2c1)N1CC(N2CCN(C(=O)c3nccs3)CC2)C1 [Cpd 779]
Kd (mutant MGL; [2]): 0.1 µM
IC50 [1]: 944 nM

O=C(c1cc2nc(C(F)(F)F)ccc2[nH]1)N1CC(N2CCN(C(=O)c3nccs3)CC2)C1 [Cpd 863]
Kd (mutant MGL; [3]): 4.37 µM
IC50 [1]: 10200 nM

Cc1nc2cc(Cl)ccc2cc1C(=O)N1CC(N2CCN(C(=O)c3nccs3)CC2)C1 [Cpd 826]
Kd (mutant MGL; [3]): 0.663 µM
IC50 [1]: 3290 nM

COc1cccc2c(C)c(C(=O)N3CC(N4CCN(C(=O)c5nccs5)CC4)C3)[nH]c12 [Cpd 760]
Kd (mutant MGL; [2]): 0.199 µM
IC50 [1]: 581 nM

O=C(c1ccc2[nH]c(-c3ccccc3)nc2c1)N1CCN(C2CN(C(=O)c3ccccc3)C2)CC1 [Cpd 611]
Kd (mutant MGL; [2]): 5.15 µM
IC50 [1]: 13300 nM

Cc1cc(-n2ccc3cc(C(=O)N4CC(N5CCN(C(=O)c6ccccc6)CC5)C4)ccc32)ccn1 [Cpd 630, 1-(2-Methylpyridin-4-yl)-5-({3-[4-(phenylcarbonyl)piperazin-1-yl]azetidin-1-yl}carbonyl)-1H-indole]
Kd (mutant MGL; [3]): 0.195 µM
IC50 [1]: 714 nM

Cc1c(C(=O)N2CC(N3CCN(C(=O)c4nccs4)CC3)C2)[nH]c2ccc(-c3ccnn3C)cc12 [Cpd 1205]
Kd (mutant MGL; [5]): 0.008 µM
IC50 [1]: 168 nM

Cc1c(C(=O)N2CCN(C3CN(C(=O)c4cncs4)C3)CC2)sc2cc(C(F)(F)F)ccc12 [Cpd 726]
Kd (mutant MGL; [2]): 0.127 µM
IC50 [1]: 218 nM

O=C(c1nccs1)N1CCN(C2CN(C(=O)c3cccc4oc(-c5ccccc5F)nc34)C2)CC1 [Cpd 1193]
Kd (mutant MGL; [4]): 0.017 µM
IC50 [1]: 116 nM

O=C(c1ccc(-c2cccc(C(F)(F)F)c2)cc1)N1CC(N2CCN(C(=O)c3cc(Br)cs3)CC2)C1 [Cpd 1087]
Kd (mutant MGL; [5]): 0.023 µM
IC50 [1]: 9 nM

Cc1nc2cc(C(=O)N3CC(N4CCN(C(=O)c5cscn5)CC4)C3)ccc2n1-c1ccccc1 [Cpd 1296]
Kd (mutant MGL; [6]): 0.197 µM
IC50 [1]: 3300 nM

O=C(c1ccc2c(c1)[S+]([O-])c1ccccc1O2)N1CC(N2CCN(C(=O)c3nccs3)CC2)C1 (stereo not shown) [Cpd 807]
Kd (mutant MGL; [6]): 3.65 µM
IC50 [1]: 2080 nM

O=C(c1cnc(NCc2ccccc2)s1)N1CC(N2CCN(C(=O)c3nccs3)CC2)C1 [Cpd 795]
Kd (mutant MGL; [2]): 1.1 µM
IC50 [1]: 1500 nM

Cc1c(C(=O)N2CC(N3CCN(C(=O)c4nccs4)CC3)C2)nc2ccc(Br)cn12 [Cpd 868]
Kd (mutant MGL; [3]): > 23.1 µM
IC50 [1]: 12100 nM

O=C(c1ccc2c(ccn2-c2ccc(F)cc2)c1)N1CC(N2CCN(C(=O)c3ccc(F)s3)CC2)C1 [Cpd 1427]
Kd (mutant MGL; [5]): 0.01 µM
IC50 [1]: 6 nM

O=C(c1ccc2c(c1)[nH]c(=O)n2CCC(F)(F)F)N1CC(N2CCN(C(=O)c3cscn3)CC2)C1 [Cpd 944]
Kd (mutant MGL; [2]): 0.802 µM
IC50 [1]: 7320 nM

O=C(c1ccc2[nH]c(C3CCCCC3)nc2c1)N1CCN(C2CN(C(=O)c3nccs3)C2)CC1 [Cpd 827]
Kd (mutant MGL; [2]): 0.5 µM
IC50 [1]: 3310 nM

O=C(c1ccc2[nH]c(-c3ccccc3)nc2c1)N1CC(N2CCN(C(=O)c3nccs3)CC2)C1 [Cpd 1194]
Kd (mutant MGL; [2]): 0.1 µM
IC50 [1]: 118 nM

O=C(c1ccccc1)N1CCN(C2CN(C(=O)c3ccc4nc(-c5cccc(F)c5)sc4c3)C2)CC1 [Cpd 599]
Kd (mutant MGL; [4]): 0.481 µM
IC50 [1]: 1030 nM
